Test results: patent publication USRE28819E, “Dialkylated glycol compositions and medicament preparations containing same” (Syntex (U.S.A.) Inc., priority 1975, dated 1976)
Values after ≈ are worked out from the molar mass of the structure shown. Structures can show the parent of a compound that is named as a salt.

Assays:
[1] = solubility of medicament in polyethylene glycol-550-dimethyl ether at 30°C
physchem = details: polyethylene glycol-550-dimethyl ether, organic solvent or mixture
[2] = storage stability of PGE2 formulations (percent activity, t90); type: physicochemical; details: PGE2, conclusion from Examples XV-XXIX
Description: A formulation is prepared having 1 mg. PGE2 per ml. 1,2-dimethoxyethane. After 12 days storage at 60°C. under a nitrogen atmosphere, the PGE2 assays 100% of the activity at time zero.
A formulation is prepared having 1 mg. PGE2 per ml. of triethylene glycol-dimethyl ether. After 5 days storage at 60°C. under a nitrogen atmosphere, the PGE2 assays 100% of the activity at time zero.
The following formulations are prepared having 1 mg. PGE2 per ml. of polyethylene glycol-550-dimethyl ether, and the additional material(s) as set forth below. The percent activity of the PGE2 after storage for 7 days at 80°C. is also given.
A formulation is prepared having 1 mg. PGE2, 0.01% edetic acid, 0.01% BHA and 0.01% BHT per ml. polyethylene glycol-550-dimethyl ether, and sealed in an ampule under nitrogen atmosphere. After 18 days storage at 80°C., the PGE2 assays 100% of the activity at time zero.
The following formulations are prepared having 1 mg. PGE2 per ml. polyethylene glycol-550 -dimethyl ether, and the additional material(s) as set forth below, and the sealed in individual ampules under nitrogen atmosphere. The time (t90) for 10% of the PGE2 to decompose when stored at 80°C. is given. Also given is the corresponding t90 for a formulation having 1 mg. PGE2 per ml. polyethylene glycol-400, also sealed under nitrogen atmosphere.
By comparison, 1 mg. […]

[3] = literature (Brummer; Karim et al); cited from earlier work
[4] = decomposition of aspirin vs. time in formulation stored at 80°C; type: physicochemical; details: conclusion from Examples XV-XXIX
Description: A formulation is prepared having 0.5 g. aspirin per 1.0g. polyethylene glycol- 750-dimethyl ether, and stored at 80°C. Decomposition of the aspirin is measured vs. time. The time for 10% decomposition is 27 hours. This reflects approximately a 30 month shelf-life at 25°C. This can be compared to a published report [Jun et al, J. Pharm. Sec.

[5] = polyethylene glycol-550-dimethyl ether, organic solvent or mixture

Row | Molecule | solubility [1, 5] [µg/mL] | solubility (physchem) [µg/mL] | other results
1 | CCOC(=O)c1ccc(N)cc1 [benzocaine] | 111000 (≈ 672 mM) |  | 
2 | gramicidin |  |  | solubility ([1]; in polyethylene glycol-550-dimethyl ether, 30°C): 4400 µg/mL
3 | CCCCCCCCCCCCCCCC(=O)N(CCO)CCO [N,N-bis(2-hydroxyethyl)-palmitamide] | 2700 (≈ 7.86 mM) |  | 
4 | CC1(C)O[C@@H]2C[C@H]3[C@@H]4C[C@H](F)C5=CC(=O)C=C[C@]5(C)[C@@]4(Cl)[C@@H](Cl)C[C@]3(C)[C@]2(C(=O)CCl)O1 [9α,11β,21-trichloro-6α-fluoro-16α,17α-isopropylidenedioxy-pregna-1,4-diene-3,20-dione] |  | 1500 (≈ 2.97 mM) | 
5 | CN(C)C1C(=O)C(C(N)=O)=C(O)C2(O)C(=O)C3=C(O)c4c(O)cccc4C(C)(O)C3C(O)C12 (stereo not drawn) [oxytetracycline hydrochloride] |  | 340 | 
6 | CC(=O)[C@@]12OC(C)(C)O[C@@H]1C[C@H]1[C@@H]3C[C@H](F)C4=CC(=O)C=C[C@]4(C)[C@@]3(F)[C@@H](O)C[C@@]12C [6α,9α-difluoro-11β-hydroxy-16α,17α-isopropylidenedioxy-pregna-1,4-diene-3,20-dione] |  | 6500 (≈ 14.9 mM) | 
7 | CCCCC[C@H](O)/C=C/[C@H]1[C@H](O)CC(=O)[C@@H]1C/C=C\CCCC(=O)O [PGE2, 11α,15α-dihydroxy-9-keto-5,13-prostadienoic acid] | 2000 (≈ 5.67 mM) |  | chemical potency in the dialkylated glycol vehicle [2]: stabilizes, for extended periods of time, the chemical potency; chemical stability [3]: relatively unstable
8 | CC(=O)Oc1ccccc1C(=O)O [aspirin, acetylsalicylic acid] | 120000 (≈ 666 mM) |  | chemical potency in the dialkylated glycol vehicle [4]: stabilizes, for extended periods of time, the chemical potency
9 | CCCCC[C@H](O)/C=C/[C@@H]1[C@@H](C/C=C\CCCC(=O)O)[C@@H](O)C[C@H]1O [PGF2α, 9α,11α,15α-trihydroxy-5,13-prostadienoic acid] |  | 36000 (≈ 102 mM) | 
